Data set [1] concerns CNE2/CDDP cells. The experiment in a line: Subcutaneous tumor-bearing model, CNE2/CDDP. In kind it is in vivo. Here is the method:
Finally, to evaluate the combination inhibitory effects of compound 3f with CDDP in vivo, the subcutaneous tumor-bearing model was applied by using strain of BALB/C nude mice. In detail, 32 BALB/C nude mice without tumor were purchased and CNE2/CDDP cells (2 × 10^7) were subcutaneously injected into the right flank of each mouse to make tumor burden. Then, the 32 mice with tumor burden were divided into four groups which receive vehicle, CDDP (5 mg/kg), compound 3f (40 mg/kg), and CDDP with 3f combination treatments (5mg/kg for CDDP and 40 mg/kg for 3f), respectively, through intraperitoneal injection with two times a week for one month. […] The adverse effects of treatment were also tested by detecting serum concentration of Alanine Aminotransferase (ALT), Aspartate aminotransferase (AST), and creatinine (Cr).
The in vivo studies were conducted according to protocols approved by the Animal Ethics Committee of Guangxi University (GXU2018-019). The subcutaneous tumor-bearing model using BALB/C nude mice was applied to assess the in vivo CDDP-resistant reversal activity of compound 3f. In brief, 32 BALB/C nude mice without tumor were purchased and CNE2/CDDP cells (2 × 10^7) were subcutaneously injected into the right flank of each mouse to make tumor burden. Then, the 32 mice with tumor burden were divided into four groups which receive vehicle, CDDP (5 mg/kg), compound 3f (40 mg/kg), and CDDP with 3f combination treatments (5 mg/kg for CDDP and 40 mg/kg for 3f) (n = 8 for each group; twice a week for a month). Drugs were resolved with sterile saline–ethanol–DMSO (89:10:1, v/v/v). Sterile saline–ethanol–DMSO (89:10:1, v/v/v) was used as vehicle. Tumor volume was calculated according to the formula: V = 0.5 × L × W^2 (L: the long diameter of the tumor; W: the short diameter of the tumor). At the time of the animal sacrifice, tumors were excised and weighted.

The next data set relates to CNE2. Nature of the data set: MTT cytotoxicity assay, CNE2. In kind it is cell-based. Conditions: Homo sapiens, CNE-2, 72 h, mean ± SD. Here is the method:
(§1) Prior to determining the combined inhibitory effects against NPC CDDP-resistance cells, the cytotoxicity effects of these 8 derivatives were evaluated against three NPC cell lines (CNE2, HONE1, and HK-1) and CDDP resistance cell line (CNE2/CDDP) by using MTT (3-(4,5-dimethyl-2-thiazolyl)-2,5-diphenyl-2-H-tetrazolium bromide) assays. […] Moreover, a liver normal cell LO2 was involved to evaluate the selectivity of these 8 compounds by using MTT assays.
(§2) Nasopharyngeal carcinoma cells (CNE2, HONE1, and CNE2/CDDP) were purchased from Shanghai Aulu Biological Technologh Co., Ltd. (Shanghai, China). HK-1 cell was purchased from Shanghai Shunran Biological Technologh Co., Ltd. CNE2, HONE1, and HK-1 were cultured in DMEM medium supplemented with 10% fetal bovine serum, 1% penicillin-streptomycin. CDDP-resistant NPC cell CNE2/CDDP was cultured in DMEM medium supplemented with CDDP to sustain its drug resistance. Cell viability was detected using the MTT assay. All the 8 derivatives were resolved with DMSO to make a storage solution at 1 M, and CDDP was resolved with phosphate buffer saline (PBS) to make a storage solution at 100 mM. The maximum concentrations of these 8 derivatives and CDDP used in MTT assays were set as 1 mM and 100 µM diluted with DMEM medium, respectively. Medium with 0.1% DMSO was set as control. To begin, an initial MTT assay was conducted to evaluate the cytotoxicity of 3a~3h with a dose range of 50, 100, 200, 400, and 800 µM. Then, a more precise dose range was set to calculate the IC50 of each compound (For 3a~3e: 50, 100, 200, 400, 600, and 800 µM; for 3f~3h: 12.5, 25, 50, 100, 200, and 400 µM). Then, 5000 cells were seeded in a 96-well plate for each well and treated with respective compounds at different concentrations for 72 h following additional treatment with MTT for 2~3 h. Then, MTT was removed and 150 µL DMSO was added into each well and the absorption values were measured at 490 nm using a SpectraMAX M5plate reader (Silicon Valley, CA, USA).

Data set [2] concerns CNE2/CDDP cells. The experiment in a line: Combined inhibitory effect with CDDP, MTT. It counts as cell-based. The settings on record: co-treated with CDDP (5 µM) and compound at IC10, MTT. Here is the method: Compounds regularly show synergy effects with a relatively low dosage range (IC10 to IC30). In order to preliminarily verify whether 8 compounds could increase cell sensitivity to CDDP, CNE2/CDDP cells were co-treated with CDDP (5 µM) and each compound (IC10), respectively. The cytotoxicity was evaluated by using MTT assays. […] Thus, compound 3f was selected for further experiments.
as §2, with “Medium with 0.1% DMSO was set as control. To begin, an initial MTT assay was conducted to evaluate the cytotoxicity of 3a~3h with a dose range of 50, 100, 200, 400, and 800 µM. Then, a more precise dose range was set to calculate the IC50 of each compound (For 3a~3e: 50, 100, 200, 400, 600, and 800 µM; for 3f~3h: 12.5, 25, 50, 100, 200, and 400 µM). Then, 5000 cells were seeded in a 96-well plate for each well and treated with respective compounds at different concentrations for 72 h following additional treatment with MTT for 2~3 h.” left out, “USA). […]” for “USA).”

A further data set concerns LO2. Nature of the data set: MTT cytotoxicity assay, LO2 normal liver cell. The settings on record: Homo sapiens, L02, 72 h, mean ± SD. It counts as cell-based. The procedure:
as §1, §2
On the technique in general: Tetrazolium assays rely on reduction of a dye to a coloured formazan, in cell work by metabolically active cells.

This is an account of results in PMC7830115, “Design, Synthesis, Molecular Docking, and Tumor Resistance Reversal Activity Evaluation of Matrine Derivative with Thiophene Structure” (Molecules, 2021).

One may read the IC50 as the concentration that inhibits the measured activity by half. Read a high IC50 as weaker potency. With `S=C1C(=Cc2ccc(Cl)s2)CCC2C3CCCN4CCCC(CN12)C34` (stereo not drawn) [3f, 14-((5-chlorothiophen-2-yl)methylene)thiomatrine], the “tumor volume and weight, combined treatment with CDDP” value with CNE2/CDDP cells [1] (CDDP 5 mg/kg + 3f 40 mg/kg, intraperitoneal, twice a week for one month, compared with CDDP or 3f alone) was “significantly reduced tumor volume and weight”. Also, in the data set on CNE2/CDDP cells [1] (dose of 40 mg/kg, reflected by mouse body weight and ALT, AST, Cr), the toxicity in vivo result was “no obvious toxicity”. Besides, in the data set with CNE2/CDDP cells [1] (groups: vehicle, CDDP 5 mg/kg, 3f 40 mg/kg, combination, i.p. twice a week for one month), the “body weight of mice” value was “no significant difference in body weight”. In addition, the half-inhibitory concentration (IC50) in the data set on CNE2 was determined as 35.7 ± 3.4 µM; with LO2 it was 72 ± 5.8 µM. The “increase of the inhibitory effects of CDDP” value in the data set with CNE2/CDDP cells [2] is on record as “could increase the inhibitory effects of CDDP”.
